Experimental data reported in US20190336555A1, “SYNERGISTIC DIETARY SUPPLEMENT COMPOSITIONS FOR IMPROVING BRAIN HEALTH” (LAILA NUTRACEUTICALS, priority 2016, published 2019).
Counter-ions that a name gives are not always drawn.

Tested on: scopolamine induced memory impairment in Sprague Dawley rats
Assay: Scopolamine induced memory impairment model, Morris Water Maze
Assay type: in vivo
Conditions: oral, 4 days; LN16026F3 100 mg/kg, Donepezil 10 mg/kg; vs Scopolamine group
Experimental: Twenty four healthy male Sprague Dawley rats were randomized in to four groups. Animals of groups 1 and 2 were treated daily with vehicle (0.5% sodium CMC in water); group 3 with LN16026F3 (100 mg/kg) and group 4 with Donepezil Hydrochloride Monohydrate (10 mg/kg). Dementia was induced by injecting Scopolamine Hydrobromide (0.2 mg/kg) subcutaneously to G2, G3 & G4 groups. G1 group received only 1 mL/kg of normal saline (0.9% w/v sodium chloride) via subcutaneous route.
The experiment consists of 4 days of acquisition trials and one probe trial on day 5 i.e. the day after the completion of acquisition trails. Rats were allowed to swim for 120 seconds of 4 trials per day during acquisition trial in water maze to find the hidden platform. Each rat received 4 days of acquisition trials and one probe trial of 180 seconds on day 5. The movement of the animals was tracked by the SMART video tracking system. Memory retention was assessed on day 5 in which each animal received a single 180 seconds probe trial without platform in the pool. Dopamine levels were measured in tissue from hippocampal region of the brain using Elisa kit.

COc1cc2c(cc1OC)C(=O)C(CC1CCN(Cc3ccccc3)CC1)C2 (stereo not shown) [Donepezil, Donepezil Hydrochloride Monohydrate]
Target latency, Acquisition Trial: reduction in target latency
